Where a name gives a salt, the structure may show the parent alone.

Eight compounds from patent publication EP0608858A1, “5-Membered heterocycles as aggregation inhibitors” (Dr. Karl Thomae GmbH, priority 1993, dated 1994) can be followed below.

Data set [1] relates to Humanthrombozyten. The data set can be described thus: Competitive binding of ³H-BIBU 52 / test substance to human platelets. As to conditions: human platelets in plasma, ³H-BIBU 52 5 nM, 20 min at room temperature; read-out: Kompetitive Bindung ³H-BIBU 52 Textsubstanz an Humanthrombozyten IC₅₀. From the text:
1. Kompetitive Bindung ³H-BIBU 52/Testsubstanz an Humanthrombozyten:
Eine Suspension von Humanthrombozyten in Plasma wird mit ³H-BIBU 52 [= (3S,5S)-5-[(4'-Amidino-4-biphenylyl)oxymethyl]-3-[(carboxyl)methyl]-2-pyrrolidinon[3-³H-4-biphenylyl]], das den literaturbekannten Liganden ¹²⁵I-Fibrinogen ersetzt, (siehe deutsche Patentanmeldung P 42 14 245.8 der gleichen Anmeldezin vom 30. 04. 1992, internes Zeichen: Case 5/1093-FL) und verschiedenen Konzentrationen der zu testenden Substanz inkubiert. Der freie und gebundene Ligand wird durch Zentrifugation getrennt und durch Szintillationszählung quantitativ bestimmt. Aus den Meßwerten wird die Hemmung der ³H-BIBU 52-Bindung durch die Testsubstanz bestimmt.
Hierzu wird aus einer Antikubitalvene Spenderblut entnommen und mit Trinatriumzitrat antikoaguliert (Endkonzentration 13 mM) . Das Blut wird 10 Minuten bei 170 x g zentrifugiert und das überstehende plättchenreiche Plasma (PRP) abgenommen. Das Restblut wird zur Gewinnung von Plasma nocheinmal scharf abzentrifugiert. Das PRP wird mit autologem Plasma 1:10 verdünnt. 750 µl werden mit 50 µl physiologischer Kochsalzlösung, 100 µl Testsubstanzlösung, 50 µl ¹⁴C-Sucrose (3.700 Bq) und 50 µl ³H-BIBU 52 (Endkonzentration: 5 nM.) bei Raumtemperatur 20 Minuten inkubiert. Zur Messung der unspezifischen Bindung wird anstelle der Testsubstanz 5 µl BIBU 52 (Endkonzentration: 30 µM) eingesetzt. Die Proben werden 20 Sekunden bei 10000 x g zentrifugiert und der Überstand abgezogen. 100 µl hiervon werden zur Bestimmung des freien Liganden gemessen. Das Pellet wird in 500 µl 0,2N NaOH gelöst, 450 µl werden mit 2 ml Szintillator und 25 µl 5N HCl versetzt und gemessen. Das im Pellet noch verbliebene Restplasma wird aus dem ¹⁴C-Gehalt bestimmt, der gebundene Ligand aus der ³H-Messung. Nach Abzug der unspezifischen Bindung wird die Pelletaktivität gegen die Konzentration der Testssubstanzaufgetragen und die Konzentration für eine 50%ige Hemmung der Bindung ermittelt.

The test system of data set [2] is Thrombozytenaggregation. The data set can be described thus: Collagen-induced platelet aggregation (Born and Cross) in platelet-rich plasma. In kind it is cell-based, gesunder Versuchspersonen. As to conditions: human platelet-rich plasma, 10 min preincubation with substance at 37°C, read-out: Hemmung der Plättchenaggregation EC₅₀. From the text: 2. Antithrombotische Wirkung
Die Thrombozytenaggregation wird nach der Methode von Born und Cross (J. Physiol. 170, 397 (1964)) in plättchenreichem Plasma gesunder Versuchspersonen gemessen. Zur Gerinnungshemmung wird das Blut mit Natriumcitrat 3,14 % im Volumenverhältnis 1:10 versetzt.
Collagen-induzierte Aggregation
Der Verlauf der Abnahme der optischen Dichte der Plättchensuspension wird nach Zugabe der aggregationsauslösenden Substanz photometrisch gemessen und registriert. Aus dem Neigungswinkel der Dichtekurve wird auf die Aggregationsgeschwindigkeit geschlossen. Der Punkt der Kurve, bei dem die größte Lichtdurchlässigkeit vorliegt, dient zur Berechnung der "optical density".
Die Collagen-Konzentration wird möglichst gering gewählt, aber doch so, daß sich eine irreversibel verlaufende Reaktionskurve ergibt. Verwendet wird das handelsübliche Collagen der Firma Hormonchemie, München. Vor der Collagen-Zugabe wird das Plasma jeweils 10 Minuten mit der Substanz bei 37°C inkubiert.
Aus den Konzentrations-Wirkungskurven wird die EC₅₀ berechnet, die die Konzentration beschreibt, bei der die Änderung der "optical density" halbmaximal gehemmt ist.

The test system of data set [3] is Mäusen. As to the kind of experiment: Tolerability after intravenous administration to mice. The data set is classed as in vivo. Conditions: 30 mg/kg, 3 mice each.
In data set [4] the test system is Humanthrombozyten. As to the kind of experiment: Ex vivo inhibition of collagen-induced aggregation of human platelets by rat plasma obtained after oral dosing. Conditions: rat plasma obtained after oral 10 mg/kg, after 3 hours. In kind it is in vivo. The procedure:
Außerdem erzielt man beispielsweise mit dem nach peroraler Gabe vom 10 mg/kg der Verbindung des Beispiels 2(19) gewonnenen Rattenplasma ex vivo nach 3 Stunden eine 80%ige Hemmung der durch Kollagen induzierten Aggregration von Humanthrombozyten.

Consider `O=C(O)CCNC(=O)c1nnc(-c2ccc(C3CCNCC3)cc2)s1` [Beispiel 3, 2-[(2-Carboxyethyl)-aminocarbonyl]-5-[4-(4-piperidyl)-phenyl]-1,3,4-thiadiazol-hydrochlorid], for which the IC50 in data set [1] came out at 400 nM. In data set [2], the EC50 was 880 nM.
`Cl.O=C(O)[C@H]1CC[C@H](c2nnc(-c3ccc(C4CCNCC4)cc3)s2)CC1` [5(3), 2-(trans-4-Carboxy-cyclohexyl)-5-[4-(4-piperidyl)-phenyl]-1,3,4-thiadiazol-hydrochlorid]: the Tiere gestorben result in data set [3] is reported as “keine Tiere gestorben”. Also, the IC50 in data set [1] was 11 nM. Further, the EC50 in data set [2] turned out to be 100 nM.
`CCCCS(=O)(=O)NC(Cc1cn(-c2ccc(-c3ccc(C(=N)N)cc3)nn2)cn1)C(=O)O` (centres unmarked) [3(3), 1-[6-(4-Amidino-phenyl)-3-pyridazinyl]-4-[2-(n-butan-sulfonylamino)-2-carboxy-ethyl]-imidazol-hydrochlorid]: the IC50 in data set [1] is 1.6 nM. In data set [2], the EC50 worked out at 40 nM.
Taken in the same sequence, the figures for `COC(=O)[C@H]1CC[C@H](c2nnc(-c3ccc(C4CCNCC4)cc3)s2)CC1` [2(3), 2-[trans-4-(Methoxycarbonyl)-cyclohexyl)-5-[4-(4-piperidyl)-phenyl]-1,3,4-thiadiazol-hydrochlorid] were 550 nM and 380 nM.
Turning to `Cl.O=C(O)CCCCc1nnc(-c2ccc(C3CCNCC3)cc2)s1` [Beispiel 5, 2-(4-Carboxy-butyl)-5-[4-(4-piperidyl)-phenyl]-1,3,4-thiadiazol-hydrochlorid], the Tiere gestorben entry in data set [3] was “keine Tiere gestorben”. The IC50 in data set [1] stood at 510 nM. Moreover, in data set [2], the EC50 came to 320 nM.
As for `O=C(O)CCCCc1nnc(-c2ccc(C3CCNCC3)cc2)o1` [3(1), 2-(4-Carboxybutyl)-5-[4-(4-piperidyl)-phenyl]-1,3,4-oxadiazol], the IC50 in data set [1] was 6800 nM. The EC50 in data set [2] was 4400 nM.
On to `CCOC(=O)[C@H]1CC[C@H](c2nnc(-c3ccc(C4CCNCC4)cc3)s2)CC1.Cl` [2(19), 2-[trans-4-(Ethoxycarbonyl)-cyclohexyl]-5-[4-(4-piperidyl)-phenyl]-1,3,4-thiadiazol-hydrochlorid], for which, in data set [4], the “Hemmung der durch Kollagen induzierten Aggregration von Humanthrombozyten” value turned out to be 80%.
Regarding `COC(=O)CCNC(=O)c1nnc(-c2ccc(C3CCNCC3)cc2)s1` [Beispiel 2, 2-[[2-(Methoxycarbonyl)-ethyl]-aminocarbonyl]-5-[4-(4-piperidyl)-phenyl]-1,3,4-thiadiazol-hydrochlorid], the IC50 in data set [1] was 24000 nM. Besides, the EC50 in data set [2] came to 3000 nM.
